From ChEMBL document CHEMBL4507262, “Data for DCP probe A-1596586” (2021)
Active and inactive are the calls of the source. No cut-off for these calls is given here.

Legend:
[1] = target: Mitogen-activated protein kinase 6 (Homo sapiens) (UniProt Q16659); details: Compound concentration 1000.0 nM
[2] = tested on: Tyrosine-protein kinase ABL1 (Homo sapiens), P00519 [F317L]; details: Compound concentration 1000.0 nM
[3] = target: Beta-2 adrenergic receptor (Homo sapiens) (UniProt P07550); test: Beta2 (h) Eurofins-Cerep binding assay; parameters: ligand concentration 0.3 nM; details: filed as antagonist, Compound concentration 10.0 uM
[4] = target: Mitogen-activated protein kinase kinase kinase 15 (Homo sapiens) (UniProt Q6ZN16); details: Compound concentration 1000.0 nM
[5] = tested on: Phosphatidylinositol 4,5-bisphosphate 3-kinase catalytic subunit alpha isoform (Homo sapiens), P42336 [Q546K]; details: Compound concentration 1000.0 nM
[6] = target: 5-hydroxytryptamine receptor 1E (Homo sapiens) (UniProt P28566); details: Compound concentration 10.0 uM
[7] = target: Tyrosine-protein kinase ABL2 (Homo sapiens) (UniProt P42684); details: Compound concentration 1000.0 nM
[8] = target: Sodium-dependent serotonin transporter (Homo sapiens) (UniProt P31645); details: Compound concentration 10.0 uM
[9] = target: Glutamate NMDA receptor (Rattus norvegicus) (UniProt P35439+Q00959+Q00960+Q00961+Q62645+Q8VHN2+Q9R1M7); test: NMDA Eurofins-Cerep binding assay; format: protein-complex assay; parameters: ligand concentration 5 nM; details: filed as antagonist, Compound concentration 10.0 uM
[10] = target: Adenosine receptor A3 (Homo sapiens) (UniProt P0DMS8); test: A3 (h) Eurofins-Cerep binding assay; parameters: ligand concentration 0.15 nM; details: filed as agonist, Compound concentration 10.0 uM
[11] = target: Type-2 angiotensin II receptor (Homo sapiens) (UniProt P50052); test: AT2 (h) Eurofins-Cerep binding assay; parameters: ligand concentration 0.01 nM; details: filed as agonist, Compound concentration 10.0 uM
[12] = target: T1, Cystic fibrosis transmembrane conductance regulator (Homo sapiens, UniProt P13569); test: Plasma membrane-expressed enzyme acceptor protein (EA-MEM) assay
[13] = target: Histamine H3 receptor (Homo sapiens) (UniProt Q9Y5N1); details: Compound concentration 10.0 uM
[14] = target: Mitogen-activated protein kinase kinase kinase 4 (Homo sapiens) (UniProt Q9Y6R4); details: Compound concentration 1000.0 nM
[15] = target: Serine/threonine-protein kinase MAK (Homo sapiens) (UniProt P20794); details: Compound concentration 1000.0 nM
[16] = target: T1, Cystic fibrosis transmembrane conductance regulator; test: CSE-HRP surface expression (Cell surface expression-horseradish peroxidase) assay
[17] = target: Casein kinase I isoform alpha-like (Homo sapiens) (UniProt Q8N752); details: Compound concentration 1000.0 nM
[18] = target: Citron Rho-interacting kinase (Homo sapiens) (UniProt O14578); details: Compound concentration 1000.0 nM
[19] = target: Tyrosine-protein kinase JAK3 (Homo sapiens) (UniProt P52333); details: Compound concentration 1000.0 nM
[20] = target: Macrophage-stimulating protein receptor (Homo sapiens) (UniProt Q04912); details: Compound concentration 1000.0 nM
[21] = target: cAMP-dependent protein kinase catalytic subunit alpha (Homo sapiens) (UniProt P17612); details: Compound concentration 1000.0 nM
[22] = target: Receptor-interacting serine/threonine-protein kinase 1 (Homo sapiens) (UniProt Q13546); details: Compound concentration 1000.0 nM
[23] = target: Casein kinase II subunit alpha' (Homo sapiens) (UniProt P19784); details: Compound concentration 1000.0 nM
[24] = target: Serine/threonine-protein kinase WNK2 (Homo sapiens) (UniProt Q9Y3S1); details: Compound concentration 1000.0 nM
[25] = target: Cyclin-dependent kinase 4 (Homo sapiens) (UniProt P11802); details: Compound concentration 1000.0 nM
[26] = target: Mitogen-activated protein kinase kinase kinase 12 (Homo sapiens) (UniProt Q12852); details: Compound concentration 1000.0 nM
[27] = target: Sodium-dependent dopamine transporter (Homo sapiens) (UniProt Q01959); details: Compound concentration 10.0 uM
[28] = target: T2, 5-hydroxytryptamine receptor 2C (Homo sapiens) (UniProt P28335); details: Compound concentration 10.0 uM
T2 sequence (whole entry): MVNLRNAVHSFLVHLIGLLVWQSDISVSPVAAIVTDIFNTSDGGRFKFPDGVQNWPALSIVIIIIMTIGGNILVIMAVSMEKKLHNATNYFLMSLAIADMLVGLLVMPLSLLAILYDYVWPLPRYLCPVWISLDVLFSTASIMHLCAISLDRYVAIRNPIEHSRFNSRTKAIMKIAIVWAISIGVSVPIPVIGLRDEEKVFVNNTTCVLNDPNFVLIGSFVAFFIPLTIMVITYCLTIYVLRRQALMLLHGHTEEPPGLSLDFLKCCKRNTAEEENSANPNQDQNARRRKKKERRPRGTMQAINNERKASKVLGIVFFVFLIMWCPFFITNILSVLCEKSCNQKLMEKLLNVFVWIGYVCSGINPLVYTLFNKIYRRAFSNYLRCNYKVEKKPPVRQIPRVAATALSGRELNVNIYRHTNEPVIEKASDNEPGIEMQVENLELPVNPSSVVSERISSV

[29] = target: 5-hydroxytryptamine receptor 6 (Homo sapiens) (UniProt P50406); details: Compound concentration 10.0 uM
[30] = target: T3, Muscarinic acetylcholine receptor M2 (Homo sapiens) (UniProt P08172); details: Compound concentration 10.0 uM
T3 sequence (whole entry): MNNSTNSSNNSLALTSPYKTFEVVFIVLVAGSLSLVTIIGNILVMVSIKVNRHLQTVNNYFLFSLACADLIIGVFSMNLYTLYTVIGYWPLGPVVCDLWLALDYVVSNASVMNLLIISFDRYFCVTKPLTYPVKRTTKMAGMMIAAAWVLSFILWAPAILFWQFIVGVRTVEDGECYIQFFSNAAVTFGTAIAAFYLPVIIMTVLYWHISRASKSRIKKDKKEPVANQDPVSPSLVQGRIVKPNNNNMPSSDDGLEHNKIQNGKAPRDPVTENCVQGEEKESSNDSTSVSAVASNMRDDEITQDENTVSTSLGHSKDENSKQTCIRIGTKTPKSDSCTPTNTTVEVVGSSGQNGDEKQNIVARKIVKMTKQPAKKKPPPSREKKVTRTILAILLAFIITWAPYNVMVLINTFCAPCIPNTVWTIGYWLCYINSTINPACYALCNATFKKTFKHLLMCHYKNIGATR

[31] = target: 5-hydroxytryptamine receptor 5A (Homo sapiens) (UniProt P47898); details: Compound concentration 10.0 uM

T1 sequence (P13569 whole entry): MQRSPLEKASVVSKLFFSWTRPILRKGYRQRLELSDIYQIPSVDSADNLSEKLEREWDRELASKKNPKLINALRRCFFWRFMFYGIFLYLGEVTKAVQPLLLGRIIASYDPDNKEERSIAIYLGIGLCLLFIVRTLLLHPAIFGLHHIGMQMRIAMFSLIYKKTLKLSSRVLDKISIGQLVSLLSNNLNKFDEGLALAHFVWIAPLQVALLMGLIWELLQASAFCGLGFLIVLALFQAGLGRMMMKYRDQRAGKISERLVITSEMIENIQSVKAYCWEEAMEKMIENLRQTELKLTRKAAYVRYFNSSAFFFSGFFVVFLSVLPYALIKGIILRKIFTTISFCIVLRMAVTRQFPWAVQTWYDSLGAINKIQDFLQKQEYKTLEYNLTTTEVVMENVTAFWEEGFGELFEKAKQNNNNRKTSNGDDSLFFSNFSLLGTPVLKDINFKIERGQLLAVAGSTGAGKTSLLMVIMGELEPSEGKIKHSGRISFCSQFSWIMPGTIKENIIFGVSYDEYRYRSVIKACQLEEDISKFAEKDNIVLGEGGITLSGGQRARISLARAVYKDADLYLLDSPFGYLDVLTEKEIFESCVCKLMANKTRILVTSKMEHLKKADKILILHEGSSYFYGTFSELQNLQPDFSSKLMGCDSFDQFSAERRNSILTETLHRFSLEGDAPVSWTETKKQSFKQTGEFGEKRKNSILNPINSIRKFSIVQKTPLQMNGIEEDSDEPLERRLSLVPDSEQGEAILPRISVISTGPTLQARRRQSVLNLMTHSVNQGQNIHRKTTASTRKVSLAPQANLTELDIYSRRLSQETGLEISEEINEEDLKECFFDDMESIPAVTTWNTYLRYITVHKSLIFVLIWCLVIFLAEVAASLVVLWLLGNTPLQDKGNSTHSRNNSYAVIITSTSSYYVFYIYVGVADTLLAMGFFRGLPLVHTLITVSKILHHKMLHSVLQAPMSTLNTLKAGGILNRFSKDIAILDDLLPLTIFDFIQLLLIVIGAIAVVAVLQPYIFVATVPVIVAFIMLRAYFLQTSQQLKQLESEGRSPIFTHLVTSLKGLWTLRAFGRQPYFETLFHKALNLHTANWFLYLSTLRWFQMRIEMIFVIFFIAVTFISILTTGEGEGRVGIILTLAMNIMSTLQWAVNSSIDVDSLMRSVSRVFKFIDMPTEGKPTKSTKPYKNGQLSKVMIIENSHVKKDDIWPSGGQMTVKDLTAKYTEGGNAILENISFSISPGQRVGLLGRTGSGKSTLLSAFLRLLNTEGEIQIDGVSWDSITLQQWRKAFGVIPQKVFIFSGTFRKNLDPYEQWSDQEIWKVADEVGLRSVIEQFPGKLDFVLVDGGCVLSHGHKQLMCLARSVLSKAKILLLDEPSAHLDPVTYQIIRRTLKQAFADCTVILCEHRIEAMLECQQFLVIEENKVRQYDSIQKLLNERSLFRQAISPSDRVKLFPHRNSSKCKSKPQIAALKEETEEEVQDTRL
Chain of Serine/threonine-protein kinase WNK2 (Homo sapiens) (Q9Y3S1 whole entry): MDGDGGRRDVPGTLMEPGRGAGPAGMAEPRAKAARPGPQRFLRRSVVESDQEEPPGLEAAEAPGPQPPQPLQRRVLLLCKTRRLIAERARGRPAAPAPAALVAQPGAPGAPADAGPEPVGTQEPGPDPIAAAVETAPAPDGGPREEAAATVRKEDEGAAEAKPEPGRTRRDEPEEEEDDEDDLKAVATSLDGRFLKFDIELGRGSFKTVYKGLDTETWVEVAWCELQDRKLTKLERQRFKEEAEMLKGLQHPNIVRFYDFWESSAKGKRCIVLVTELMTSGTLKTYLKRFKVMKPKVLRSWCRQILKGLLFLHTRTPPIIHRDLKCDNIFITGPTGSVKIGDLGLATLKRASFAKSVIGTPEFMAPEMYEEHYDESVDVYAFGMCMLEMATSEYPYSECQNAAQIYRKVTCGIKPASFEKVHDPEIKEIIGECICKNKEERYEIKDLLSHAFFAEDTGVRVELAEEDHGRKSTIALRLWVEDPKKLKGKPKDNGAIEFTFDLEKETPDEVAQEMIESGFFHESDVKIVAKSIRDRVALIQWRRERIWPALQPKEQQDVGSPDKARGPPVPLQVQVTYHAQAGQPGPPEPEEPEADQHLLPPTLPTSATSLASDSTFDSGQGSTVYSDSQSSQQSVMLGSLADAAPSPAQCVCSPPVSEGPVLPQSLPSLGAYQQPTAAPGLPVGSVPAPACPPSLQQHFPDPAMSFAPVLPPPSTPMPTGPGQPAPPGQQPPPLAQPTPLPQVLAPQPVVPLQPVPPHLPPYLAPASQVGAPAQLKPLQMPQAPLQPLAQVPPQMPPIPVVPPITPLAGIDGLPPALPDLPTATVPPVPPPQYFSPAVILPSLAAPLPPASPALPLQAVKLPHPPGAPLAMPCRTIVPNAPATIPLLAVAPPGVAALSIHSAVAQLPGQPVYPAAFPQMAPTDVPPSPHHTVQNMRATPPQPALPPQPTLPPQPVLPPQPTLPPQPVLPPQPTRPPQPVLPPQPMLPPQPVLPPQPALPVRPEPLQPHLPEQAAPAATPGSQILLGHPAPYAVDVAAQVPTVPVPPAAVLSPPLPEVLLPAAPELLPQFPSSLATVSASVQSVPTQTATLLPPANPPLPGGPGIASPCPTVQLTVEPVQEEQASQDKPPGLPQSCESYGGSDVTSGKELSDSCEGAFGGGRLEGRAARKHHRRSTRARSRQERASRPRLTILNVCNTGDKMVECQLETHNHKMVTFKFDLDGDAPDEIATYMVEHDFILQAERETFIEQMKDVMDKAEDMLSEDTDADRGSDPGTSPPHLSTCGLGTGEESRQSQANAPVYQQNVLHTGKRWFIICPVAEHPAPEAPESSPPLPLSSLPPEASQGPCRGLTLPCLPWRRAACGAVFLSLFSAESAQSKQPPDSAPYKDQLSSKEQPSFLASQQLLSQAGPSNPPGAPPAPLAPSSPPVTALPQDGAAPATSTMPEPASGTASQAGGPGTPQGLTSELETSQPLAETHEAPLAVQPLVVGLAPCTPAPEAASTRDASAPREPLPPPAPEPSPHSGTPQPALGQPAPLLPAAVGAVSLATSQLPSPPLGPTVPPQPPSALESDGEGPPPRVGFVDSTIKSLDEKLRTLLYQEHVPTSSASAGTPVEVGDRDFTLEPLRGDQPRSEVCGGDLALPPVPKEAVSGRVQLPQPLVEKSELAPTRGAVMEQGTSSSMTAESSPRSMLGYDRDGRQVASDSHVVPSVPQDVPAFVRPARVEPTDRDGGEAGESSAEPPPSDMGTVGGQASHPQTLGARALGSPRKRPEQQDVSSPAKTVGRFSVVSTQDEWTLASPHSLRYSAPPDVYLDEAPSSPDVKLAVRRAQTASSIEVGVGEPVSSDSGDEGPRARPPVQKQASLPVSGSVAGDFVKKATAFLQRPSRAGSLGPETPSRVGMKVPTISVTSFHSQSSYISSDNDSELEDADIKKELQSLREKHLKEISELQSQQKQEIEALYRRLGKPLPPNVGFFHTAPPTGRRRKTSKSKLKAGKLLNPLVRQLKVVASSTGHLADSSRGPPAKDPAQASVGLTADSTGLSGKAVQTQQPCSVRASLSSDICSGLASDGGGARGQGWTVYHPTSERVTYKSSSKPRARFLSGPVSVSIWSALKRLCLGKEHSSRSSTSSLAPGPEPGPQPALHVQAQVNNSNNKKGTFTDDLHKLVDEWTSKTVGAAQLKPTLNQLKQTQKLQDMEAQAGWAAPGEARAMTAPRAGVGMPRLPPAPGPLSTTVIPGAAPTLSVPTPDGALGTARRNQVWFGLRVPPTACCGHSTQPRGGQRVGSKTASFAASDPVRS
Chain of Casein kinase I isoform alpha-like (Homo sapiens) (Q8N752 whole entry, canonical isoform): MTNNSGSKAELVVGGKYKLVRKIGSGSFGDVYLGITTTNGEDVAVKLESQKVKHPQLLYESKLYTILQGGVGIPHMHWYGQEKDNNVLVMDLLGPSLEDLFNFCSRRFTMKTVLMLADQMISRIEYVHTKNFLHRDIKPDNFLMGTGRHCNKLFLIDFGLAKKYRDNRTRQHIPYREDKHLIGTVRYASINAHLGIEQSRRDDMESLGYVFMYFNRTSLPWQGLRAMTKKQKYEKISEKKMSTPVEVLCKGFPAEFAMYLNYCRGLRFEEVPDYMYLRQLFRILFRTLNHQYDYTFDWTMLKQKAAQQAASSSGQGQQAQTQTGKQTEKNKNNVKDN
Chain of Beta-2 adrenergic receptor (Homo sapiens) (P07550 whole entry, looked up): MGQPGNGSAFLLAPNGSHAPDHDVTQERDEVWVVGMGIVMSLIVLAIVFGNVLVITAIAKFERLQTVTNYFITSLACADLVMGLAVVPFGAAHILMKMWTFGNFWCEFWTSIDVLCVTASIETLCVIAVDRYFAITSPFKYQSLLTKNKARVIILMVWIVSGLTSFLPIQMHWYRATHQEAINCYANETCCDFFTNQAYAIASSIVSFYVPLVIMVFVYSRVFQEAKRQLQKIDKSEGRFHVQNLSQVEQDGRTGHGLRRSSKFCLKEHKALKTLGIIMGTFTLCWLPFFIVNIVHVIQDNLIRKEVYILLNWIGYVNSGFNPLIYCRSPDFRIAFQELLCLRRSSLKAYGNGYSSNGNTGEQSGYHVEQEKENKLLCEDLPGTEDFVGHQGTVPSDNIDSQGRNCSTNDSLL
Chain of Adenosine receptor A3 (Homo sapiens) (P0DMS8 whole entry): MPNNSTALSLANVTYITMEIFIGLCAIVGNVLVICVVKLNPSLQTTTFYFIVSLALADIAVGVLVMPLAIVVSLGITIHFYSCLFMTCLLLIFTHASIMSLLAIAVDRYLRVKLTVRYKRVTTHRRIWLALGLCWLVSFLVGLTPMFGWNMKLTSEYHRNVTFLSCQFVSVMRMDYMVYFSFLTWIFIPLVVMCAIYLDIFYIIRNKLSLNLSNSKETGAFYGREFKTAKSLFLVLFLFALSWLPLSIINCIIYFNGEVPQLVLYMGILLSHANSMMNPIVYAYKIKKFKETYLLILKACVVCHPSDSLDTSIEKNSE

Compound | residual activity [1] [%] | residual activity [2] [%] | % Inhibition of Control Specific Binding (Mean n=2) [3] [%] | residual activity [4] [%] | residual activity [5] [%] | residual activity [7] [%] | % Inhibition of Control Specific Binding (Mean n=2) [9] [%] | % Inhibition of Control Specific Binding (Mean n=2) [10] [%] | % Inhibition of Control Specific Binding (Mean n=2) [11] [%] | EC50 [12] | residual activity [14] [%] | residual activity [15] [%] | EC50 [16] | residual activity [17] [%] | residual activity [18] [%] | residual activity [19] [%] | residual activity [20] [%] | residual activity [21] [%] | residual activity [22] [%] | residual activity [23] [%] | other results
COc1ccc2c(c1)O[C@H](c1ccc(OC)c(OC)c1)C[C@@H]2NC(=O)C1(c2ccc3c(c2)OC(F)(F)O3)CC1 [A-1596584] | 100 | 97 | 11.6 | 100 | 100 | 100 | 1.3 | 67.7 | -3.4 | 3900 nM (not active) | 98 | 95 | 1000 nM (not active) | 100 | 92 | 100 | 100 | 100 | 100 | 100 | inhibition [6]: 1.27%; inhibition [8]: 5.75%; inhibition [13]: 10.4%; residual activity [24]: 85%; residual activity [25]: 100%; residual activity [26]: 87%
COc1ccc2c(c1)O[C@@H](c1ccc(OC)c(OC)c1)C[C@H]2NC(=O)C1(c2ccc3c(c2)OC(F)(F)O3)CC1 [A-1596586] | 100 | 94 | 7 | 88 | 78 | 89 | 8.7 | 63.9 | 4.9 | 35 nM (active) | 95 | 93 | 130 nM (active) | 100 | 90 | 88 | 94 | 100 | 93 | 87 | inhibition [27]: 6.33%; inhibition [28]: -2.28%; inhibition [29]: -7.58%; inhibition [30]: -9.38%; inhibition [31]: -7.95%; residual activity [24]: 84%; residual activity [25]: 95%; residual activity [26]: 80%
